# Source: US20230181905A1, “Systems, Devices, and Methods for Enhancing the Neuroprotective Effects of Non-Invasive Gamma Stimulation with Pharmacological Agents” (Massachusetts Institute of Technology, priority 2021, published 2023)
# System: amyloid
# Assay: Amyloid immunohistochemistry in APP.PS1 mice
# Type: in vivo, mouse
# Conditions: 11-month-old APP.PS1 mice
# Description: 11-month-old APP.PS1 mice were either a) untreated as control, b) treated with GENUS alone (40 Hz light flicker delivered for 1 hour/day for 30 days), or c) a combination of GENUS (40 Hz delivered for 1 hour/day for 30 days) and levetiracetam (10 mg/kg body weight, intraperitoneal injection daily for 30 days), an agent shown to offer benefits in AD model mice. After the treatment mice were transcardially perfused with ice cold phosphate buffered saline (PBS) followed by 4% paraformaldehyde in PBS. Forty micron brain slices were prepared, and immunohistochemistry was then performed to evaluate the amyloid levels.
smiles,measurement,setting,value
CC[C@@H](C(N)=O)N1CCCC1=O [levetiracetam],amyloid levels in the visual cortex relative to treatment with GENUS alone,levetiracetam 10 mg/kg i.p. daily 30 days co-administered with GENUS,higher
same,effect of GENUS on amyloid levels,levetiracetam 10 mg/kg i.p. daily 30 days co-administered with GENUS 1 hour/day,dampened or attenuated
